Experimental findings from US9453019B2, “Linked purine pterin HPPK inhibitors useful as antibacterial agents” (THE UNITED STATES OF AMERICA, AS REPRESENTED BY THE …, priority 2010, dated 2016) are described below.

One data set concerns the target HPPK (Escherichia coli, UniProt P26281). In words: Fluorometric titration binding study with HPPK. As to conditions: room temperature; 100 mM Tris-HCl, pH 8.3; fluorescence titration, nonlinear least-squares analysis. The method, then:
Binding studies were carried out at room temperature. Protein (HPPK) and ligand stock solutions were made in 100 mM Tris-HCl, pH 8.3, and their concentrations were determined spectrophotometrically using the following extinction coefficients: 21600 M^−1 cm^−1 at 280 nm for HPPK, 7000 M^−1 cm^−1 at 366 nm for the pteridone bisubstrate inhibitors such as compound 13, and 7124 M^−1 cm^−1 at 380 nm for the tetrahydropteridine bisubstrate inhibitors such as 28. A 3-mL dilute inhibitor solution in a fluorometric cuvette was titrated with the protein stock solution. Fluorescence was measured on a Horiba Jobin Yvon FluoroMax-4 fluorometer. The excitation wavelength and slit were 364-380 and 2-3 nm, respectively, and the emission wavelength and slit were 450-482 and 2-5 nm, respectively. […] For these HPPK preparations, a control experiment, in which a 3-mL buffer solution was titrated with the protein solution, was performed. The control data was subtracted from the titration data. The corrected titration data was then analyzed by nonlinear least-squares regression using the software Origin and the equation:
[formula] where Fobs is the observed fluorescence, εf and εb are the fluorescence coefficients of the ligand in the free and protein-bound states, respectively, Lt is the total concentration of the ligand, and Et is the total concentration of HPPK. […]

Data set [1] is described as follows: Stability of the compounds (stated in words, no method given). It counts as physicochemical. As to conditions: qualitative statement; no conditions given.

Molecules are shown by their SMILES.

HPPK, sequence (P26281 whole entry): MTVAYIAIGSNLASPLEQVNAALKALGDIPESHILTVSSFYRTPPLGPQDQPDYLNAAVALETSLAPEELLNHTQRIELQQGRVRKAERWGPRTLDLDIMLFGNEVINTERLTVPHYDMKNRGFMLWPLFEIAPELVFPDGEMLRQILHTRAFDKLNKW

For `Nc1nc2ncc(CNCCN3CCC(SC[C@H]4O[C@@H](n5cnc6c(N)ncnc65)C(O)C4O)CC3)nc2c(=O)[nH]1` (stereo in doubt) [Compound 13, 2-Amino-6-[(2-{4-[5-(6-amino-purin-9-yl)-3,4-dihydroxy-tetrahydro-furan-2-ylmethylsulfanyl]-piperidin-1-yl}-ethylamino)-methyl]-3H-pteridin-4-one], the affinity at HPPK, expressed as Kd, was 0.59 µM. Besides, the Stability of compound result in data set [1] is “stable”.
In the same order, the values of `CC1(C)Nc2nc(N)[nH]c(=O)c2N=C1C(=O)NCCN1CCC(SC[C@H]2O[C@@H](n3cnc4c(N)ncnc43)C(O)C2O)CC1` (stereo in doubt) [Compound 28, 2-Amino-7,7-dimethyl-4-oxo-3,4,7,8-tetrahydro-pteridine-6-carboxylic acid (2-{4-[5-(6-amino-purin-9-yl)-3,4-dihydroxy-tetrahydro-furan-2-ylmethylsulfanyl]-piperidin-1-yl}-ethyl)-amide] are 0.33 µM and “stable”.
